Results as given in article PMC11277489, “Novel Piperazine Derivatives of Vindoline as Anticancer Agents” (International Journal of Molecular Sciences, 2024).

Legend:
[1] = test system: HS 578T; assay: NCI60 one-dose screen (10 μM), Breast Cancer; type: cell-based; conditions: Homo sapiens; 10 μM; HS 578T, Breast Cancer; read-out: Growth percent rate
[2] = test system: OVCAR-3; assay: NCI60 five-dose screen, Ovarian Cancer; type: cell-based; conditions: Homo sapiens; OVCAR-3, Ovarian Cancer; five-dose screen; read-out: GI50
[3] = test system: NCI-H226; assay: NCI60 one-dose screen (10 μM), Non-small Cell Lung Cancer; type: cell-based; conditions: Homo sapiens; 10 μM; NCI-H226, Non-small Cell Lung Cancer; read-out: Growth percent rate
[4] = test system: UO-31; assay: NCI60 one-dose screen (10 μM), Renal Cancer; type: cell-based; conditions: Homo sapiens; 10 μM; UO-31, Renal Cancer; read-out: Growth percent rate
[5] = test system: SF-539; assay: NCI60 five-dose screen, CNS Cancer; type: cell-based; conditions: Homo sapiens; SF-539, CNS Cancer; five-dose screen; read-out: GI50
[6] = test system: NCI/ADR-RES; assay: NCI60 one-dose screen (10 μM), Ovarian Cancer; type: cell-based; conditions: Homo sapiens, 10 μM, Ovarian Cancer, read-out: Growth percent rate
[7] = test system: OVCAR-4; assay: NCI60 five-dose screen, Ovarian Cancer; type: cell-based; conditions: Homo sapiens; OVCAR-4, Ovarian Cancer; five-dose screen; read-out: GI50
[8] = test system: HOP-62; assay: NCI60 five-dose screen, Non-small Cell Lung Cancer; type: cell-based; conditions: Homo sapiens; HOP-62, Non-small Cell Lung Cancer; five-dose screen; read-out: GI50
[9] = test system: ACHN; assay: NCI60 five-dose screen, Renal Cancer; type: cell-based; conditions: Homo sapiens, Renal Cancer, five-dose screen, read-out: GI50
[10] = test system: U251; assay: NCI60 five-dose screen, CNS Cancer; type: cell-based; conditions: Homo sapiens, U-251; U251, CNS Cancer; five-dose screen; read-out: GI50
[11] = test system: NCI-H522; assay: NCI60 five-dose screen, Non-small Cell Lung Cancer; type: cell-based; conditions: Homo sapiens; NCI-H522, Non-small Cell Lung Cancer; five-dose screen; read-out: GI50
[12] = test system: SK-MEL-2; assay: NCI60 five-dose screen, Melanoma; type: cell-based; conditions: Homo sapiens; SK-MEL-2, Melanoma; five-dose screen; read-out: GI50
[13] = test system: EKVX; assay: NCI60 one-dose screen (10 μM), Non-small Cell Lung Cancer; type: cell-based; conditions: Homo sapiens, 10 μM, Non-small Cell Lung Cancer, read-out: Growth percent rate
[14] = test system: HL-60(TB); assay: NCI60 five-dose screen, Leukemia; type: cell-based; conditions: Homo sapiens; HL-60(TB), Leukemia; five-dose screen; read-out: GI50
[15] = test system: NCI/ADR-RES; assay: NCI60 five-dose screen, Ovarian Cancer; type: cell-based; conditions: Homo sapiens, Ovarian Cancer, five-dose screen, read-out: GI50
[16] = test system: MDA-MB-231/ATCC; assay: NCI60 one-dose screen (10 μM), Breast Cancer; type: cell-based, human; conditions: for activity at 10 µM: Homo sapiens, MDA-MB-231/ATCC, Breast Cancer, read-out: Growth percent rate
[17] = test system: BT-549; assay: NCI60 five-dose screen, Breast Cancer; type: cell-based; conditions: Homo sapiens; BT-549, Breast Cancer; five-dose screen; read-out: GI50
[18] = test system: UACC-62; assay: NCI60 one-dose screen (10 μM), Melanoma; type: cell-based; conditions: Homo sapiens; 10 μM; UACC-62, Melanoma; read-out: Growth percent rate
[19] = test system: K-562; assay: NCI60 five-dose screen, Leukemia; type: cell-based; conditions: Homo sapiens, K562; K-562, Leukemia; five-dose screen; read-out: GI50
[20] = test system: T-47D; assay: NCI60 five-dose screen, Breast Cancer; type: cell-based; conditions: Homo sapiens, T47D; T-47D, Breast Cancer; five-dose screen; read-out: GI50
[21] = test system: NCI-H522; assay: NCI60 one-dose screen (10 μM), Non-small Cell Lung Cancer; type: cell-based; conditions: Homo sapiens; 10 μM; NCI-H522, Non-small Cell Lung Cancer; read-out: Growth percent rate
[22] = test system: SK-MEL-5; assay: NCI60 five-dose screen, Melanoma; type: cell-based; conditions: Homo sapiens; SK-MEL-5, Melanoma; five-dose screen; read-out: GI50
[23] = test system: HCC-2998; assay: NCI60 one-dose screen (10 μM), Colon Cancer; type: cell-based; conditions: Homo sapiens; 10 μM; HCC-2998, Colon Cancer; read-out: Growth percent rate
[24] = test system: T-47D; assay: NCI60 one-dose screen (10 μM), Breast Cancer; type: cell-based; conditions: Homo sapiens, T47D; 10 μM; T-47D, Breast Cancer; read-out: Growth percent rate
[25] = test system: A549/ATCC; assay: NCI60 five-dose screen, Non-small Cell Lung Cancer; type: cell-based; conditions: Homo sapiens; A549/ATCC, Non-small Cell Lung Cancer; five-dose screen; read-out: GI50
[26] = test system: SN12C; assay: NCI60 one-dose screen (10 μM), Renal Cancer; type: cell-based; conditions: Homo sapiens, 10 μM, Renal Cancer, read-out: Growth percent rate
[27] = test system: HCT-116; assay: NCI60 one-dose screen (10 μM), Colon Cancer; type: cell-based; conditions: Homo sapiens; 10 μM; HCT-116, Colon Cancer; read-out: Growth percent rate
[28] = test system: SNB-75; assay: NCI60 five-dose screen, CNS Cancer; type: cell-based; conditions: Homo sapiens; SNB-75, CNS Cancer; five-dose screen; read-out: GI50
[29] = test system: BT-549; assay: NCI60 one-dose screen (10 μM), Breast Cancer; type: cell-based; conditions: Homo sapiens; 10 μM; BT-549, Breast Cancer; read-out: Growth percent rate
[30] = test system: A498; assay: NCI60 five-dose screen, Renal Cancer; type: cell-based; conditions: Homo sapiens; A498, Renal Cancer; five-dose screen; read-out: GI50
[31] = test system: NCI-H226; assay: NCI60 five-dose screen, Non-small Cell Lung Cancer; type: cell-based; conditions: Homo sapiens; NCI-H226, Non-small Cell Lung Cancer; five-dose screen; read-out: GI50
[32] = test system: OVCAR-3; assay: NCI60 one-dose screen (10 μM), Ovarian Cancer; type: cell-based; conditions: Homo sapiens; 10 μM; OVCAR-3, Ovarian Cancer; read-out: Growth percent rate
[33] = test system: OVCAR-5; assay: NCI60 one-dose screen (10 μM), Ovarian Cancer; type: cell-based; conditions: Homo sapiens; 10 μM; OVCAR-5, Ovarian Cancer; read-out: Growth percent rate
[34] = test system: NCI-H23; assay: NCI60 five-dose screen, Non-small Cell Lung Cancer; type: cell-based; conditions: Homo sapiens; NCI-H23, Non-small Cell Lung Cancer; five-dose screen; read-out: GI50
[35] = test system: SF-268; assay: NCI60 five-dose screen, CNS Cancer; type: cell-based; conditions: Homo sapiens; SF-268, CNS Cancer; five-dose screen; read-out: GI50
[36] = test system: HCT-15; assay: NCI60 five-dose screen, Colon Cancer; type: cell-based; conditions: Homo sapiens; HCT-15, Colon Cancer; five-dose screen; read-out: GI50
[37] = test system: MDA-MB-468; assay: NCI60 one-dose screen (10 μM), Breast Cancer; type: cell-based; conditions: Homo sapiens; 10 μM; MDA-MB-468, Breast Cancer; read-out: Growth percent rate
[38] = test system: SW-620; assay: NCI60 five-dose screen, Colon Cancer; type: cell-based; conditions: Homo sapiens; SW-620, Colon Cancer; five-dose screen; read-out: GI50
[39] = test system: PC-3; assay: NCI60 five-dose screen, Prostate Cancer; type: cell-based; conditions: Homo sapiens; PC-3, Prostate Cancer; five-dose screen; read-out: GI50
[40] = test system: NCI-H460; assay: NCI60 five-dose screen, Non-small Cell Lung Cancer; type: cell-based; conditions: Homo sapiens; NCI-H460, Non-small Cell Lung Cancer; five-dose screen; read-out: GI50
[41] = test system: SK-OV-3; assay: NCI60 one-dose screen (10 μM), Ovarian Cancer; type: cell-based; conditions: Homo sapiens; 10 μM; SK-OV-3, Ovarian Cancer; read-out: Growth percent rate
[42] = test system: SR; assay: NCI60 one-dose screen (10 μM), Leukemia; type: cell-based; conditions: Homo sapiens, 10 μM, Leukemia, read-out: Growth percent rate
[43] = test system: UACC-257; assay: NCI60 five-dose screen, Melanoma; type: cell-based; conditions: Homo sapiens; UACC-257, Melanoma; five-dose screen; read-out: GI50
[44] = test system: LOX IMVI; assay: NCI60 five-dose screen, Melanoma; type: cell-based; conditions: Homo sapiens, Melanoma, five-dose screen, read-out: GI50

`CCC12C=CCN3CCC4(c5cc(NC(=O)CN6CCN(C(c7ccc(F)cc7)c7ccc(F)cc7)CC6)c(OC)cc5N(C)C4C(O)(C(=O)OC)C1OC(C)=O)C32` (centres unmarked) [Compound 20] showed an activity at 10 µM [1] of 15.5%, a GI50 [2] of 4.37 µM and an activity at 10 µM [3] of 24.1%. It also gave an activity at 10 µM [4] of 27.2%, a GI50 [5] of 4.07 µM and an activity at 10 µM [6] of 20.9%. It also gave a GI50 [7] of 3.31 µM, a GI50 [8] of 89.1 µM and a GI50 [9] of 4.9 µM. It also gave a GI50 [10] of 6.03 µM, a GI50 [11] of 10.2 µM and a GI50 [12] of 3.02 µM. For the same compound, the activity at 10 µM [13] was 16.2%, the GI50 [14] was 2.19 µM and the GI50 [15] was 4.47 µM. It also gave an activity at 10 µM [16] of -4.47%, a GI50 [17] of 2.57 µM and an activity at 10 µM [18] of 28.5%. The GI50 [19] was 3.16 µM, the GI50 [20] was 3.55 µM and the activity at 10 µM [21] was 11%. For the same compound, the GI50 [22] was 2.34 µM, the activity at 10 µM [23] was 3.93% and the activity at 10 µM [24] was 10.2%. It also gave a GI50 [25] of 4.37 µM, an activity at 10 µM [26] of 26.9% and an activity at 10 µM [27] of 27.9%. For the same compound, the GI50 [28] was 1.82 µM, the activity at 10 µM [29] was -37.5% and the GI50 [30] was 5.62 µM. For the same compound, the GI50 [31] was 6.31 µM, the activity at 10 µM [32] was 36.5% and the activity at 10 µM [33] was 66.9%. For the same compound, the GI50 [34] was 6.76 µM, the GI50 [35] was 5.13 µM and the GI50 [36] was 3.55 µM. It also gave an activity at 10 µM [37] of 10.9%, a GI50 [38] of 3.98 µM and a GI50 [39] of 4.47 µM. The GI50 [40] was 3.16 µM, the activity at 10 µM [41] was 45.4% and the activity at 10 µM [42] was 0.34%. It also gave a GI50 [43] of 5.25 µM and a GI50 [44] of 3.24 µM.
For `CCC12C=CCN3CCC4(c5cc(NC(=O)CN6CCN(c7ccc(C(F)(F)F)cc7)CC6)c(OC)cc5N(C)C4C(O)(C(=O)OC)C1OC(C)=O)C32` (centres unmarked) [Compound 17], the activity at 10 µM [1] was -3.36%, the GI50 [2] was 2.88 µM and the activity at 10 µM [3] was -61.9%. For the same compound, the activity at 10 µM [4] was 0.08%, the GI50 [5] was 4.68 µM and the activity at 10 µM [6] was 0.4%. The GI50 [7] was 3.89 µM, the GI50 [8] was 3.72 µM and the GI50 [9] was 5.62 µM. The GI50 [10] was 6.03 µM, the GI50 [11] was 10.5 µM and the GI50 [12] was 4.37 µM. The activity at 10 µM [13] was 21.3%, the GI50 [14] was 2.14 µM and the GI50 [15] was 6.03 µM. It also gave a growth percent rate ([16]; 10 μM one-dose, MDA-MB-231/ATCC breast cancer, negative = lethality) of −86.10%, an activity at 10 µM [16] of -86.2% and a GI50 [17] of 2.34 µM. The activity at 10 µM [18] was -54.8%, the GI50 [19] was 3.02 µM and the GI50 [20] was 2.19 µM. For the same compound, the activity at 10 µM [21] was -24.4%, the GI50 [22] was 2.4 µM and the activity at 10 µM [23] was -69.9%. For the same compound, the activity at 10 µM [24] was 9.79%, the GI50 [25] was 4.07 µM and the activity at 10 µM [26] was -17%. The activity at 10 µM [27] was 0.31%, the GI50 [28] was 1.45 µM and the activity at 10 µM [29] was -50.4%. The GI50 [30] was 10.7 µM, the GI50 [31] was 6.46 µM and the activity at 10 µM [32] was -48%. It also gave an activity at 10 µM [33] of -41.6%, a GI50 [34] of 10.7 µM and a GI50 [35] of 3.02 µM. The GI50 [36] was 3.89 µM, the activity at 10 µM [37] was -62.5% and the GI50 [38] was 5.75 µM. The GI50 [39] was 3.31 µM, the GI50 [40] was 6.46 µM and the activity at 10 µM [41] was 6.93%. The activity at 10 µM [42] was -11.4%, the GI50 [43] was 5.5 µM and the GI50 [44] was 4.27 µM.
